Literature values in patent US20200146297A1, “FAST SYMPTOM HERBICIDAL COMPOSITIONS CONTAINING AN ORGANO[…], BI[…] A[…] SURFACTANT” (Monsanto Technology LLC, priority 2016, published 2020).

Columns and labels:
[1] = known to decompose
plant = conditions: after treatment

Compound	pH at which decomposition occurs [1]	time until visual symptoms of treatment appear (plant)
c1cc[n+]2c(c1)-c1cccc[n+]1CC2 [Diquat dibromide]	greater than 7	
O=C(O)CNCP(=O)(O)O [glyphosate, N-(phosphonomethyl)glycine]		one week or more
